In patent US11236087B2, “Highly active pyrazolo-piperidine substituted indole-2-carboxamides active against the hepatitis B virus (HBV)” (AiCuris GmbH & Co. KG, priority 2017, dated 2022):
Read-outs that look alike come from different tables or passages of the source.

Experiments:
HBV core protein = target: T1, HBV core protein (UniProt P03146); experiment: Biochemical capsid assembly assay (fluorescence quenching); parameters: species or system hepatitis B virus; settings: read-out: Assembly Activity (IC50); BODIPY-FL labelled core protein, 300 μM NaCl, read 6 min after start
T1 construct: fused on or other part: BODIPY-FL maleimide label on the C-terminal Cys150
T1 sequence (P03146 whole entry, looked up, the tested form may be a part): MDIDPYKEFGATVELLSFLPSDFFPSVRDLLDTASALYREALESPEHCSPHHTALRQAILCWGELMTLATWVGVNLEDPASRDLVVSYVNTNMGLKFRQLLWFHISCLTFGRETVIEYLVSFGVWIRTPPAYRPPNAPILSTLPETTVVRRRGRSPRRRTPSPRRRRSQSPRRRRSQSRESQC
Method in brief: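 Assembly-induced fluorescence quenching (477/525 nm) was measured 6 min after NaCl addition ([…]), against 2.5 M and 0 M NaCl controls. The labelled C150 core dimer (truncated at 149) at 1.0-2.0 μM in HEPES pH 7.5 was tested with eight half-log compound dilutions, top 100, 31.6 or 10 μM. EC50 was obtained by non-linear fit from triplicates run three times.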

HBV = experiment: Determination of HBV DNA from the supernatants of HepAD38 cells (anti-HBV activity); type: cell-based, hepatitis B virus; settings: Hepatitis B virus, read-out: Cell Activity (EC50)
Method in brief: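 Supernatant viral DNA was measured by LightCycler qPCR, calibrated with pCH-9/3091 plasmid, 6 days after tetracycline-free HepAD38 cultures received half-log serial compound dilutions; untreated and tetracycline-treated cells served as controls; EC50 was fitted by non-linear regression.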

[1] = Cell viability assay (AlamarBlue) in HepAD38 cells; settings: human
[2] = 144 h, HBV DNA in HepAD38 supernatant, day 6, qPCR

SMILES	IC50 (HBV core protein)	EC50 (HBV; [2])	CC50 at 6 days [1]	EC50 (HBV; HePAD38, 144 h)
CCON=C(C)c1n[nH]c2c1CN(C(=O)c1cc3ccccc3[nH]1)CC2 [Example 273, ethoxy({1-[5-(1H-indole-2-carbonyl)-1H,4H,5H,6H,7H-pyrazolo[4,3-c]pyridin-3-yl]ethylidene})amine]	< 100 µM	1 to 25 µM	> 10 µM	
Cc1cccc2[nH]c(C(=O)N3CCc4[nH]nc(C(=O)N(C)OCCOP(=O)(N[C@@H](C)C(=O)OC(C)C)Oc5ccccc5)c4C3)cc12 (stereo partly drawn) [Example 55, propan-2-yl (2S)-2-({[2-({N-methyl-1-[5-(4-methyl-1H-indole-2-carbonyl)-1H,4H,5H,6H,7H-pyrazolo[4,3-c]pyridin-3-yl]formamido}oxy)ethoxy](phenoxy)phosphoryl}amino)propanoate]	< 5 µM		> 32 µM	< 1 µM
O=C(c1cc2ccccc2[nH]1)N1CCc2[nH]nc(C(=O)N3CCC[C@H](O)C3)c2C1 [Example 162, (3S)-1-[5-(1H-indole-2-carbonyl)-1H,4H,5H,6H,7H-pyrazolo[4,3-c]pyridine-3-carbonyl]piperidin-3-ol]	< 100 µM	1 to 25 µM	> 10 µM	
O=C(c1cc2ccccc2[nH]1)N1CCc2[nH]nc(CO)c2C1 [Example 118, [5-(1H-indole-2-carbonyl)-1H,4H,5H,6H,7H-pyrazolo[4,3-c]pyridin-3-yl]methanol]	5 to 10 µM	1 to 25 µM	> 100 µM	
CC1(C)CCCCN1C(=O)c1n[nH]c2c1CN(C(=O)c1cc3ccccc3[nH]1)CC2 [Example 165, 2-[3-(2,2-dimethylpiperidine-1-carbonyl)-1H,4H,5H,6H,7H-pyrazolo[4,3-c]pyridine-5-carbonyl]-1H-indole]	5 to 10 µM	< 1 µM	> 10 µM	
CCc1cccc2[nH]c(C(=O)N3CCc4[nH]nc(C(=O)N(C)C5(CO)CC5)c4C3)cc12 [Example 291, 5-(4-ethyl-1H-indole-2-carbonyl)-N-[1-(hydroxymethyl)cyclopropyl]-N-methyl-1H,4H,5H,6H,7H-pyrazolo[4,3-c]pyridine-3-carboxamide]	< 5 µM	< 1 µM	> 10 µM	
COCC1(N(C)C(=O)c2n[nH]c3c2CN(C(=O)c2cc4c(F)c(F)cc(F)c4[nH]2)CC3)CC1 [Example 307, N-[1-(methoxymethyl)cyclopropyl]-N-methyl-5-(4,5,7-trifluoro-1H-indole-2-carbonyl)-1H,4H,5H,6H,7H-pyrazolo[4,3-c]pyridine-3-carboxamide]	< 5 µM	< 1 µM	> 10 µM	
CN(CCO)C(=O)c1n[nH]c2c1CN(C(=O)c1cc3cc(F)c(Cl)cc3[nH]1)CC2 [Example 6, 5-(6-chloro-5-fluoro-1H-indole-2-carbonyl)-N-(2-hydroxyethyl)-N-methyl-1H,4H,5H,6H,7H-pyrazolo[4,3-c]pyridine-3-carboxamide]	< 5 µM	< 1 µM	> 10 µM	
Cc1cc(F)cc2[nH]c(C(=O)N3CCc4[nH]nc(C5CCCO5)c4C3)cc12 (stereo not drawn) [Example 342, 6-fluoro-4-methyl-2-[3-(oxolan-2-yl)-1H,4H,5H,6H,7H-pyrazolo[4,3-c]pyridine-5-carbonyl]-1H-indole]	< 5 µM	< 1 µM	> 10 µM	
CN(CC1CCCO1)C(=O)c1n[nH]c2c1CN(C(=O)c1cc3ccccc3[nH]1)CC2 (stereo not drawn) [Example 97, 5-(1H-indole-2-carbonyl)-N-methyl-N-[(oxolan-2-yl)methyl]-1H,4H,5H,6H,7H-pyrazolo[4,3-c]pyridine-3-carboxamide]	5 to 10 µM	< 1 µM	> 100 µM	
CCc1cccc2[nH]c(C(=O)N3CCc4[nH]nc(C5CCCO5)c4C3)cc12 (stereo not drawn) [Example 337, 4-ethyl-2-[3-(oxolan-2-yl)-1H,4H,5H,6H,7H-pyrazolo[4,3-c]pyridine-5-carbonyl]-1H-indole]	< 5 µM	< 1 µM	> 10 µM	
C=Cc1scnc1-c1n[nH]c2c1CN(C(=O)c1cc3ccccc3[nH]1)CC2 [Example 317, 2-[3-(5-ethenyl-1,3-thiazol-4-yl)-1H,4H,5H,6H,7H-pyrazolo[4,3-c]pyridine-5-carbonyl]-1H-indole]	< 5 µM	< 1 µM	> 10 µM	
O=C(c1cc2ccccc2[nH]1)N1CCc2[nH]nc(C(=O)N3CC4COCC4C3)c2C1 (stereo not drawn) [Example 153, 2-(3-{hexahydro-1H-furo[3,4-c]pyrrole-5-carbonyl}-1H,4H,5H,6H,7H-pyrazolo[4,3-c]pyridine-5-carbonyl)-1H-indole]	< 100 µM	1 to 25 µM	> 10 µM	
CN(CC(O)C1CC1)C(=O)c1n[nH]c2c1CN(C(=O)c1cc3ccccc3[nH]1)CC2 (stereo not drawn) [Example 256, N-(2-cyclopropyl-2-hydroxyethyl)-5-(1H-indole-2-carbonyl)-N-methyl-1H,4H,5H,6H,7H-pyrazolo[4,3-c]pyridine-3-carboxamide]	< 5 µM	< 1 µM	> 10 µM	
CC(C)(C)OC(=O)N[C@H]1CCN(C(=O)c2n[nH]c3c2CN(C(=O)c2cc4ccccc4[nH]2)CC3)C1 [Example 194, tert-butyl N-[(3S)-1-[5-(1H-indole-2-carbonyl)-1H,4H,5H,6H,7H-pyrazolo[4,3-c]pyridine-3-carbonyl]pyrrolidin-3-yl]carbamate]	< 100 µM	1 to 25 µM	> 10 µM	
O=C(c1cc2c(F)cc(F)cc2[nH]1)N1CCc2[nH]nc(C34CC(C3)C4)c2C1 [Example 333, 2-(3-{bicyclo[1.1.1]pentan-1-yl}-1H,4H,5H,6H,7H-pyrazolo[4,3-c]pyridine-5-carbonyl)-4,6-difluoro-1H-indole]	< 5 µM	< 1 µM	> 10 µM	
CN(C(=O)c1n[nH]c2c1CN(C(=O)c1cc3ccccc3[nH]1)CC2)C1CCOCC1 [Example 199, 5-(1H-indole-2-carbonyl)-N-methyl-N-(oxan-4-yl)-1H,4H,5H,6H,7H-pyrazolo[4,3-c]pyridine-3-carboxamide]	< 100 µM	1 to 25 µM	> 10 µM	
CS(=O)(=O)CCNC(=O)c1n[nH]c2c1CN(C(=O)c1cc3ccccc3[nH]1)CC2 [Example 101, 5-(1H-indole-2-carbonyl)-N-(2-methanesulfonylethyl)-1H,4H,5H,6H7H-pyrazolo[4,3-c]pyridine-3-carboxamide]	< 100 µM	< 100 µM	> 100 µM	
CN(CCO)C(=O)c1n[nH]c2c1CN(C(=O)c1cc3cc(F)c(F)cc3[nH]1)CC2 [Example 7, 5-(5,6-difluoro-1H-indole-2-carbonyl)-N-(2-hydroxyethyl)-N-methyl-1H,4H,5H,6H,7H-pyrazolo[4,3-c]pyridine-3-carboxamide]	< 5 µM	< 1 µM	> 10 µM	
O=C(c1cc2c(F)c(F)ccc2[nH]1)N1CCc2[nH]nc(C34CC(C3)C4)c2C1 [Example 332, 2-(3-{bicyclo[1.1.1]pentan-1-yl}-1H,4H,5H,6H,7H-pyrazolo[4,3-c]pyridine-5-carbonyl)-4,5-difluoro-1H-indole]	< 5 µM	< 1 µM	> 10 µM	
O=C(c1cc2ccc(Br)cc2[nH]1)N1CCc2[nH]ncc2C1 [Example 119, 6-bromo-2-{1H,4H,5H,6H,7H-pyrazolo[4,3-c]pyridine-5-carbonyl}-1H-indole]	< 5 µM	< 1 µM	> 100 µM	
O=C(c1cc2c(F)cc(F)cc2[nH]1)N1C2CCC1c1cn[nH]c1C2 (stereo not drawn) [Example 117, 11-(4,6-difluoro-1H-indole-2-carbonyl)-4,5,11-triazatricyclo[6.2.1.0^2,6]undeca-2(6),3-diene]	< 100 µM	< 100 µM	> 100 µM	
O=C(c1cc2c(F)c(F)ccc2[nH]1)N1CCc2[nH]nc(C3CCCO3)c2C1 (stereo not drawn) [Example 338, 4,5-difluoro-2-[3-(oxolan-2-yl)-1H,4H,5H,6H,7H-pyrazolo[4,3-c]pyridine-5-carbonyl]-1H-indole]	< 5 µM	< 1 µM	> 10 µM	
CN(CC(=O)OC(C)(C)C)C(=O)c1n[nH]c2c1CN(C(=O)c1cc3ccccc3[nH]1)CC2 [Example 171, tert-butyl 2-{1-[5-(1H-indole-2-carbonyl)-1H,4H,5H,6H,7H-pyrazolo[4,3-c]pyridin-3-yl]-N-methylformamido}acetate]	< 100 µM	1 to 25 µM	> 10 µM	
CN(CC1CCOC1)C(=O)c1n[nH]c2c1CN(C(=O)c1cc3ccccc3[nH]1)CC2 (stereo not drawn) [Example 95, 5-(1H-indole-2-carbonyl)-N-methyl-N-[(oxolan-3-yl)methyl]-1H,4H,5H,6H,7H-pyrazolo[4,3-c]pyridine-3-carboxamide]	< 100 µM	1 to 25 µM	> 100 µM	
O=C(c1cc2c(F)cc(F)cc2[nH]1)N1CCc2[nH]nc(C3CCCO3)c2C1 (stereo not drawn) [Example 339, 4,6-difluoro-2-[3-(oxolan-2-yl)-1H,4H,5H,6H,7H-pyrazolo[4,3-c]pyridine-5-carbonyl]-1H-indole]	< 5 µM	< 1 µM	> 10 µM	
